# “And” between values parts separate entries of the source, which are not always exact repeats. Equal entries are not always repeated. Where two headings read alike, the source gives them in different places.
# Experiment: Part 1 PK study: single oral 200 mg dose, fed (high-fat meal) versus fasted
# Assay type: in vivo, human
# Conditions: for Vd/F: read-out: Vz/F
# Experimental: Part 1 involved analysing the PK parameters obtained following single oral administration of 200 mg tablets of a compound of formula (Ia) in free base form to 12 healthy female subjects following either fed (high-fat meal) or fasted conditions.
# For Part 1 • Cmax maximum plasma concentration (observed) • Tmax time to reach the maximum plasma concentration (observed) • Clast last observed quantifiable concentration in plasma • Tlast time of last observed quantifiable concentration in plasma • AUC0-last area under the plasma concentration-time curve from time 0 to the time of the last quantifiable concentration • AUCinf area under the plasma concentration-time curve from time 0 to infinite time, calculated as the sum of AUClast and Clast/kel • % AUCexp percent of AUC extrapolated between AUC0-last and AUCinf • kel apparent terminal elimination rate constant • t1/2 elimination half-life associated with the terminal slope (kel) of the semilogarithmic drug concentration-time curve, calculated as 0.693/kel • CL/F apparent total body clearance of a drug from the plasma calculated by: CL/F=Dose/AUCinf • Vz/F apparent volume of distribution at steady state calculated by: V/F=[…]
# An initial dose was administered on Day 1 followed by collection of samples for PK analysis for 96 hours. PK blood samples were taken pre-dose and 0.25, 0.5, 1.0, 1.5, 2, 3, 4, 8, 10, 12, 16, 24, 36, 48, 60, 72 and 96 hours post-dose, and urine samples were taken at 0-4, 4-8, 8-12, 12-24 and 24-48 hours. Ten days after the initial dose of study drug (Day 11), a second dose of drug was administered followed by collection of PK samples. Subjects completed the End-of-Study Visit (EOS) on Day 18, 7 days after the last dose of study drug.
# Subjects selected for participation checked into the clinical unit and were randomized (on the morning of Day 1) to food state for study treatment; one half received study drug in the fed state first followed by fasted state for the second dose while the other half received study drug in the fasted state first followed by fed state. Prior to dosing on Day 1, all subjects fasted for a minimum of 10 hours overnight. On the morning of Day 1, subjects dosed in the fed state received the study drug within 10 min of completing a high fat breakfast. […] Plasma and urine samples were collected as set out above for the PK analysis. Subjects remained in the clinic for study procedures and blood draws before checking out after completion of study procedures on the morning of Day 4 (i.e., 72 hours post-dose) returning for the final PK blood draw on Day 5 at 96 hr post-dose. After the first single dose of study drug, subjects completed a 10-day washout period, returning to the clinical unit for check-in on Day 10. Subjects fasted overnight, receiving the second dose of study drug in the fed or fasted state on the morning of Day 11. Subjects were discharged from the clinic after the collection of the final 72-hr PK sample returning the next day for the 96 hr blood draw.
# For both Parts 1 and 2, samples were processed and analysed as follows. The method extracted Q-122 and the Internal Standard (IS, Q-122 ^13C4) from human plasma using protein precipitation extraction.
# The analytes were separated by HPLC on a Phenomenex Synergi Polar-RP column, and the eluates monitored by an API4000 MS/MS detector in positive MRM mode. The extract was then assayed against a calibration curve. The data were acquired and processed by the data acquisition system Analyst® (Sciex) linked directly to the API4000 MS/MS detector and then processed in Watson LIMS™ (Thermo Scientific), where applicable. The method range is from 10.0 to 2500 ng/mL using 50 μL of matrix and has a run time of approximately 3.2 minutes per sample.
# Plasma PK parameters for each dosing regimen and dose level were calculated from the concentrations of Q-122 and its major metabolites measured in pre-dose and post-dose plasma samples. […]
# [1] = female, human, plasma, po, 200 mg, single oral 200 mg, fasted, mean
# [2] = female, human, plasma, po, 200 mg, single oral 200 mg, fasted, median
# [3] = female, human, plasma, po, 200 mg, single oral 200 mg, fed (high-fat meal), mean
# [4] = female, human, plasma, po, 200 mg, single oral 200 mg, fed (high-fat meal), median
# [5] = single dose 200 mg, fed versus fasted
# [6] = single oral 200 mg, fasted, individual subjects
# [7] = single oral 200 mg, fasted, max
# [8] = single oral 200 mg, fasted, mean
# [9] = single oral 200 mg, fasted, median
# [10] = single oral 200 mg, fasted, min
# [11] = single oral 200 mg, fed (high-fat meal), individual subjects
# [12] = single oral 200 mg, fed (high-fat meal), max
# [13] = single oral 200 mg, fed (high-fat meal), mean
# [14] = single oral 200 mg, fed (high-fat meal), median
# [15] = single oral 200 mg, fed (high-fat meal), min
# [16] = single oral dose 200 mg, healthy subjects
structure (smiles),measurement,setting,value
c1cnc(NCc2ccc(CNc3ncccn3)cc2)nc1 [Q-122],bioavailability with a fatty meal,"200 mg, with fatty meal versus fasted",increase in bioavailability
same,Tmax,"female, human, plasma, oral, 200 mg, single dose 200 mg, fasted, subject 101009 omitted, read-out: Tmax (range over subjects)",0.5 to 2 h
same,Tmax,"female, human, plasma, oral, 200 mg, single dose 200 mg, fasted, read-out: Tmax (range over subjects)",0.5 to 8 h
same,Tmax,"female, human, plasma, oral, 200 mg, single dose 200 mg, fed, read-out: Tmax (range over subjects)",0.5 to 10 h
same,AUC(0-inf),[1],7380 ng·h/mL
same,AUC(0-t),[1],6400 ng·h/mL
same,half-life,[1],21.4 h
same,Cmax,"female, human, plasma, po, 200 mg, single oral 200 mg, fasted, mean, read-out: Cmax",620 ng/mL
same,Tmax,"female, human, plasma, po, 200 mg, single oral 200 mg, fasted, mean, read-out: Tmax",1.75 h
same,Vd/F,[1],874 L
same,AUC(0-inf),[2],7390 ng·h/mL
same,AUC(0-t),[2],6330 ng·h/mL
same,half-life,[2],23 h
same,Cmax,"female, human, plasma, po, 200 mg, single oral 200 mg, fasted, median, read-out: Cmax",613 ng/mL
same,Tmax,"female, human, plasma, po, 200 mg, single oral 200 mg, fasted, median, read-out: Tmax",1.25 h
same,Vd/F,[2],798 L
same,AUC(0-t),[3],10200 ng·h/mL
same,half-life,[3],12.3 h
same,Cmax,"female, human, plasma, po, 200 mg, single oral 200 mg, fed (high-fat meal), mean, read-out: Cmax",987 ng/mL
same,Tmax,"female, human, plasma, po, 200 mg, single oral 200 mg, fed (high-fat meal), mean, read-out: Tmax",6.23 h
same,Vd/F,[3],404 L
same,AUC(0-inf),[4],11800 ng·h/mL
same,AUC(0-t),[4],11300 ng·h/mL
same,half-life,[4],8.98 h
same,Cmax,"female, human, plasma, po, 200 mg, single oral 200 mg, fed (high-fat meal), median, read-out: Cmax",929 ng/mL
same,Tmax,"female, human, plasma, po, 200 mg, single oral 200 mg, fed (high-fat meal), median, read-out: Tmax",8 h
same,Vd/F,[4],233 L
same,increase in mean AUC after food,[5],1.6 fold
same,increase in mean Cmax after food,[5],1.6 fold
same,change of Cmax and AUC0-last following food,"single dose 200 mg, fed versus fasted, per subject",approximately doubled in 6 out of 11 subjects
same,% AUCexp,[6],4.3% and 10.3% and 9.1% (2×) and 2.7% and 13.4% and 12.6% and 11.3% and 30.9% and 5.9% and 3.1%
same,AUC0-last,[6],5881.1 ng·h/mL and 9258.3 ng·h/mL and 7702.0 ng·h/mL and 8375.7 ng·h/mL and 4924.9 ng·h/mL and 5410.8 ng·h/mL and 6774.9 ng·h/mL and 3631.6 ng·h/mL and 5150.3 ng·h/mL and 9154.4 ng·h/mL and 6812.7 ng·h/mL and 3704.2 ng·h/mL
same,AUCinf,[6],6144.8 ng·h/mL and 10317.1 ng·h/mL and 8470.5 ng·h/mL and 8608.7 ng·h/mL and 5415.4 ng·h/mL and 6250.2 ng·h/mL and 7756.0 ng·h/mL and 4092.4 ng·h/mL and 9726.1 ng·h/mL and 7031.1 ng·h/mL
same,Cl/F,[6],32.55 L/h and 19.39 L/h and 23.61 L/h and 23.23 L/h and 36.93 L/h and 32.00 L/h and 25.79 L/h and 48.87 L/h and 20.56 L/h and 28.45 L/h
same,Clast,[6],15.50 ng/mL and 26.40 ng/mL and 16.30 ng/mL (2×) and 11.70 ng/mL and 14.20 ng/mL and 22.40 ng/mL and 30.90 ng/mL and 17.70 ng/mL and 39.70 ng/mL and 11.40 ng/mL and 22.00 ng/mL
same,Cmax,[6],611.00 ng/mL and 801.00 ng/mL and 676.00 ng/mL and 1010.00 ng/mL and 103.00 ng/mL and 516.00 ng/mL and 668.00 ng/mL and 403.00 ng/mL and 559.00 ng/mL and 1050.00 ng/mL and 615.00 ng/mL and 422.00 ng/mL
same,Tlast,[6],48.00 h and 96.00 h (3×) and 60.00 h (5×) and 72.00 h (2×) and 24.00 h
same,Tmax,[6],1.00 h and 1.50 h and 0.50 h
same,kel,[6],0.059 1/h and 0.025 1/h and 0.021 1/h and 0.050 1/h and 0.029 1/h (2×) and 0.027 1/h and 0.031 1/h and 0.038 1/h and 0.052 1/h
same,t1/2,[6],11.79 h and 27.80 h and 32.68 h and 13.80 h and 23.94 h and 25.98 h and 22.01 h and 18.04 h and 24.31 h and 13.28 h
same,% AUCexp,[7],30.9%
same,AUC0-last,[7],9258.3 ng·h/mL
same,AUCinf,[7],10317.1 ng·h/mL
same,Cl/F,[7],48.87 L/h
same,Clast,[7],39.70 ng/mL
same,Cmax,[7],1050.00 ng/mL
same,Tlast,[7],96.00 h
same,kel,[7],0.059 h⁻¹
same,t1/2,[7],32.68 h
same,% AUCexp,[8],10.23%
same,Cl/F,[8],29.137 L/h
same,Clast,[8],20.375 ng/mL
same,Tlast,[8],67.000 h
same,kel,[8],0.0361 h⁻¹
same,% AUCexp,[9],9.07%
same,Cl/F,[9],27.12 L/h
same,Clast,[9],17.00 ng/mL
same,Tlast,[9],60.00 h
same,kel,[9],0.0302 h⁻¹
same,% AUCexp,[10],2.7%
same,AUC0-last,[10],3631.6 ng·h/mL
same,AUCinf,[10],4092.4 ng·h/mL
same,Cl/F,[10],19.39 L/h
same,Clast,[10],11.40 ng/mL
same,Cmax,[10],103.00 ng/mL
same,Tlast,[10],24.00 h
same,Tmax,[10],0.50 h
same,kel,[10],0.021 h⁻¹
same,t1/2,[10],11.79 h
same,% AUCexp,[11],0.8% and 4.7% and 7.5% and 2.0% and 1.3% and 5.9% and 1.6% (2×) and 1.7% and 0.9% and 1.5%
same,AUC0-last,[11],11087.2 ng·h/mL and 12782.0 ng·h/mL and 4088.9 ng·h/mL and 8498.9 ng·h/mL and 12043.9 ng·h/mL and 7713.8 ng·h/mL and 11821.5 ng·h/mL and 12551.6 ng·h/mL and 14254.9 ng·h/mL and 6505.3 ng·h/mL
same,AUCinf,[11],11171.4 ng·h/mL and 13417.1 ng·h/mL and 4422.3 ng·h/mL and 12197.9 ng·h/mL and 8201.3 ng·h/mL and 11516.0 ng·h/mL and 12030.1 ng·h/mL and 12760.3 ng·h/mL and 14389.6 ng·h/mL and 6606.2 ng·h/mL
same,Cl/F,[11],17.90 L/h and 14.91 L/h and 45.22 L/h and 16.40 L/h and 24.39 L/h and 17.37 L/h and 16.62 L/h and 15.67 L/h and 13.90 L/h and 30.27 L/h
same,Clast,[11],11.00 ng/mL and 14.70 ng/mL and 11.20 ng/mL and 34.20 ng/mL and 15.10 ng/mL and 16.70 ng/mL and 21.50 ng/mL and 15.40 ng/mL and 13.60 ng/mL and 10.90 ng/mL and 12.20 ng/mL
same,Cmax,[11],1520.00 ng/mL and 1180.00 ng/mL and 267.00 ng/mL and 797.00 ng/mL and 603.00 ng/mL and 1400.00 ng/mL and 914.00 ng/mL and 1240.00 ng/mL and 1230.00 ng/mL and 779.00 ng/mL
same,Tlast,[11],36.00 h (3×) and 96.00 h (2×) and 24.00 h and 48.00 h (4×) and 60.00 h
same,Tmax,[11],0.50 h and 10.00 h
same,kel,[11],0.131 1/h and 0.023 1/h and 0.034 1/h (2×) and 0.098 1/h and 0.114 1/h and 0.074 1/h and 0.065 1/h and 0.081 1/h and 0.121 1/h
same,t1/2,[11],5.30 h and 29.71 h and 20.63 h and 7.07 h and 20.23 h and 6.08 h and 9.39 h and 10.63 h and 8.57 h and 5.73 h
same,% AUCexp,[12],7.5%
same,AUC0-last,[12],14254.9 ng·h/mL
same,AUCinf,[12],14389.6 ng·h/mL
same,Cl/F,[12],45.22 L/h
same,Clast,[12],34.20 ng/mL
same,Cmax,[12],1520.00 ng/mL
same,Tlast,[12],96.00 h
same,Tmax,[12],10.00 h
same,kel,[12],0.131 h⁻¹
same,t1/2,[12],29.71 h
same,% AUCexp,[13],2.70%
same,Cl/F,[13],21.266 L/h
same,Clast,[13],16.045 ng/mL
same,Tlast,[13],52.364 h
same,kel,[13],0.0775 h⁻¹
same,% AUCexp,[14],1.64%
same,Cl/F,[14],17.00 L/h
same,Clast,[14],14.70 ng/mL
same,Tlast,[14],48.00 h
same,kel,[14],0.0774 h⁻¹
same,% AUCexp,[15],0.8%
same,AUC0-last,[15],4088.9 ng·h/mL
same,AUCinf,[15],4422.3 ng·h/mL
same,Cl/F,[15],13.90 L/h
same,Clast,[15],10.90 ng/mL
same,Cmax,[15],267.00 ng/mL
same,Tlast,[15],24.00 h
same,Tmax,[15],0.50 h
same,kel,[15],0.023 h⁻¹
same,t1/2,[15],5.30 h
same,increase of mean AUC0-inf by a high-fat meal compared to the fasted state,[16],~45%
same,increase of mean Cmax by a high-fat meal compared to the fasted state,[16],about 60%

# — patent publication US20220133722A1, “PHARMACEUTICAL COMPOSITIONS” (QUE ONCOLOGY PTY LTD, priority 2019, published 2022)
